Results: patent US20100209345A1, “Fluorinated Ligands for Targeting Peripheral Benzodiazepine Receptors” (Australian Nuclear Science & Technology Organisation, priority 2006, published 2010)

Key:
[1] = molecular target: central benzodiazepine receptors; test: In vitro binding, [3H]-Flumazenil, brain cortex membrane preparation; details: [3H]-Flumazenil (2 nM), 25° C., 45 min, read-out: CBR IC50
How it was run: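 Brain cortex membranes bound with [3H]-flumazenil; non-specific binding defined by 20 μM flumazenil. Filtration on GF/B, washes in ice-cold 50 mM Tris/HCl pH 7.4, bound counts by scintillation, IC50 derived from displacement.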

[2] = Biodistribution of 18F-labelled tracers in rats; format: in vivo
How it was run: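 Sprague-Dawley rats received 18F tracer, and brain and peripheral tissues were analysed at 15 and 30 min and 1 and 4 h post-injection. For specificity, rats were pretreated 5 min beforehand with PK11195 or Ro 5-4864 (PBR) or flumazenil (CBR), each at 1 mg/kg.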

[3] = SD rats, 15 min, decay correction not stated
[4] = SD rats, 4 hours, decay correction not stated
[5] = rats, 15 min, corrected for decay of 18F
[6] = rats, 15 min, not corrected for decay of 18F
[7] = rats, 30 min, corrected for decay of 18F
[8] = rats, 30 min, not corrected for decay of 18F
[9] = rats, 60 min (1 hour), not corrected for decay of 18F
[10] = rats, 60 min, corrected for decay of 18F
[11] = rats, 4 hours, corrected for decay of 18F
[12] = rats, 4 hours, not corrected for decay of 18F

Q: Which results are given for `CCN(CC)C(=O)Cc1c(-c2ccc(OCCCF)cc2)nc2ccc(Cl)cn12` [PBR111, 2-(2-(4-(3-fluoropropoxy)phenyl)-6-chloroimidazo[1,2-a]pyridin-3-yl)-N,N-diethylacetamide]?
A: IC50 [1]: 1590 nM; Biodistribution: Blood [2, 3]: 0.4 % ID/g; Biodistribution: Bone [2, 3]: 0.87 % ID/g; Biodistribution: Kidney [2, 3]: 3.2 % ID/g; Biodistribution: Olfactory bulbs [2, 3]: 0.64 % ID/g; Biodistribution: Adrenals ([2]; SD rats, 30 min, decay correction not stated): 6.5 % ID/g; Biodistribution: Adrenals [2, 4]: 16 % ID/g; Biodistribution: Blood [2, 4]: 0.1 % ID/g; Biodistribution: Bone [2, 4]: 4.3 % ID/g; Biodistribution: Kidney [2, 4]: 2.3 % ID/g; Biodistribution: Olfactory bulbs [2, 4]: 0.41 % ID/g; Biodistribution: Bone [2, 5]: 0.87 ± 0.12 % ID/g; Biodistribution: Heart [2, 5]: 6.76 ± 0.82 % ID/g; Biodistribution: Lungs [2, 5]: 14.39 ± 2.19 % ID/g; Biodistribution: Skin [2, 5]: 0.34 ± 0.03 % ID/g; Biodistribution: Adrenals [2, 6]: 8.36 ± 2.02 % ID/g; Biodistribution: Bladder [2, 6]: 0.67 ± 0.36 % ID/g; Biodistribution: Blood [2, 6]: 0.48 ± 0.11 % ID/g; Biodistribution: Bone [2, 6]: 0.99 ± 0.18 % ID/g; Biodistribution: Brain [2, 6]: 0.31 ± 0.06 % ID/g; Biodistribution: GIT [2, 6]: 1.21 ± 0.11 % ID/g; Biodistribution: Heart [2, 6]: 7.75 ± 1.08 % ID/g; Biodistribution: Kidney [2, 6]: 5.18 ± 0.67 % ID/g; Biodistribution: Liver [2, 6]: 1.54 ± 0.20 % ID/g; Biodistribution: Lungs [2, 6]: 16.45 ± 2.81 % ID/g; Biodistribution: Muscle [2, 6]: 0.68 ± 0.16 % ID/g; Biodistribution: Olfactory bulbs [2, 6]: 0.74 ± 0.14 % ID/g; Biodistribution: Pancreas [2, 6]: 2.33 ± 0.33 % ID/g; Biodistribution: Skin [2, 6]: 0.39 ± 0.06 % ID/g; Biodistribution: Spleen [2, 6]: 8.25 ± 2.25 % ID/g; Biodistribution: Stomach [2, 6]: 0.95 ± 0.23 % ID/g; Biodistribution: Testes [2, 6]: 0.35 ± 0.05 % ID/g; Biodistribution: Thymus [2, 6]: 1.07 ± 0.23 % ID/g; Biodistribution: Thyroid [2, 6]: 11.40 ± 0.33 % ID/g; Biodistribution: Bone [2, 7]: 1.22 ± 0.10 % ID/g; Biodistribution: Heart [2, 7]: 6.63 ± 0.35 % ID/g; Biodistribution: Lungs [2, 7]: 8.41 ± 0.77 % ID/g; Biodistribution: Skin [2, 7]: 0.37 ± 0.02 % ID/g; Biodistribution: Adrenals [2, 8]: 9.06 ± 3.47 % ID/g; Biodistribution: Bladder [2, 8]: 0.76 ± 0.16 % ID/g; Biodistribution: Blood [2, 8]: 0.33 ± 0.11 % ID/g; Biodistribution: Bone [2, 8]: 1.35 ± 0.27 % ID/g; Biodistribution: Brain [2, 8]: 0.19 ± 0.04 % ID/g; Biodistribution: GIT [2, 8]: 1.38 ± 0.36 % ID/g; Biodistribution: Heart [2, 8]: 7.30 ± 0.90 % ID/g; Biodistribution: Kidney [2, 8]: 4.77 ± 1.05 % ID/g; Biodistribution: Liver [2, 8]: 0.94 ± 0.28 % ID/g; Biodistribution: Lungs [2, 8]: 9.27 ± 1.60 % ID/g; Biodistribution: Muscle [2, 8]: 0.62 ± 0.15 % ID/g; Biodistribution: Olfactory bulbs [2, 8]: 0.60 ± 0.14 % ID/g; Biodistribution: Pancreas [2, 8]: 1.49 ± 0.29 % ID/g; Biodistribution: Skin [2, 8]: 0.41 ± 0.06 % ID/g; Biodistribution: Spleen [2, 8]: 6.54 ± 1.35 % ID/g; Biodistribution: Stomach [2, 8]: 1.18 ± 0.34 % ID/g; Biodistribution: Testes [2, 8]: 0.38 ± 0.07 % ID/g; Biodistribution: Thymus [2, 8]: 1.23 ± 0.47 % ID/g; Biodistribution: Thyroid [2, 8]: 13.24 ± 4.62 % ID/g; Biodistribution: Adrenals [2, 9]: 12.11 ± 3.32 % ID/g; Biodistribution: Bladder [2, 9]: 1.24 ± 0.29 % ID/g; Biodistribution: Blood [2, 9]: 0.24 ± 0.08 % ID/g; Biodistribution: Bone [2, 9]: 2.41 ± 0.24 % ID/g; Biodistribution: Brain [2, 9]: 0.17 ± 0.04 % ID/g; Biodistribution: GIT [2, 9]: 1.89 ± 0.37 % ID/g; Biodistribution: Heart [2, 9]: 8.41 ± 1.91 % ID/g; Biodistribution: Kidney [2, 9]: 5.08 ± 1.23 % ID/g; Biodistribution: Liver [2, 9]: 0.82 ± 0.22 % ID/g; Biodistribution: Lungs [2, 9]: 7.29 ± 2.12 % ID/g; Biodistribution: Muscle [2, 9]: 0.55 ± 0.11 % ID/g; Biodistribution: Olfactory bulbs [2, 9]: 0.65 ± 0.14 % ID/g; Biodistribution: Pancreas [2, 9]: 1.24 ± 0.36 % ID/g; Biodistribution: Skin [2, 9]: 0.54 ± 0.07 % ID/g; Biodistribution: Spleen [2, 9]: 6.72 ± 1.91 % ID/g; Biodistribution: Stomach [2, 9]: 0.91 ± 0.06 % ID/g; Biodistribution: Testes [2, 9]: 0.51 ± 0.09 % ID/g; Biodistribution: Thymus [2, 9]: 1.39 ± 0.29 % ID/g; Biodistribution: Thyroid [2, 9]: 13.04 ± 3.22 % ID/g; Biodistribution: Bone [2, 10]: 2.04 ± 0.09 % ID/g; Biodistribution: Lungs [2, 10]: 5.68 ± 1.03 % ID/g; Biodistribution: Skin [2, 10]: 0.46 ± 0.02 % ID/g; Biodistribution: Bone [2, 11]: 4.32 ± 0.33 % ID/g; Biodistribution: Lungs [2, 11]: 3.02 ± 0.39 % ID/g; Biodistribution: Skin [2, 11]: 0.63 ± 0.04 % ID/g; Biodistribution: Adrenals [2, 12]: 17.81 ± 3.61 % ID/g; Biodistribution: Bladder [2, 12]: 1.33 ± 0.17 % ID/g; Biodistribution: Blood [2, 12]: 0.12 ± 0.02 % ID/g; Biodistribution: Bone [2, 12]: 4.86 ± 0.86 % ID/g; Biodistribution: Brain [2, 12]: 0.10 ± 0.02 % ID/g; Biodistribution: GIT [2, 12]: 2.01 ± 0.27 % ID/g; Biodistribution: Heart [2, 12]: 4.92 ± 0.66 % ID/g; Biodistribution: Kidney [2, 12]: 2.57 ± 0.48 % ID/g; Biodistribution: Liver [2, 12]: 0.44 ± 0.07 % ID/g; Biodistribution: Lungs [2, 12]: 3.37 ± 0.40 % ID/g; Biodistribution: Muscle [2, 12]: 0.19 ± 0.05 % ID/g; Biodistribution: Olfactory bulbs [2, 12]: 0.47 ± 0.06 % ID/g; Biodistribution: Pancreas [2, 12]: 0.61 ± 0.10 % ID/g; Biodistribution: Skin [2, 12]: 0.71 ± 0.07 % ID/g; Biodistribution: Spleen [2, 12]: 3.45 ± 0.43 % ID/g; Biodistribution: Stomach [2, 12]: 0.51 ± 0.06 % ID/g; Biodistribution: Testes [2, 12]: 0.67 ± 0.08 % ID/g; Biodistribution: Thymus [2, 12]: 1.88 ± 0.40 % ID/g; Biodistribution: Thyroid [2, 12]: 8.91 ± 1.19 % ID/g; chromatographic logP (LogP HPLC): 3.2 ± 0.1
